From US5416111A, “Cyano-containing n-phenyl-amino-terminated non-peptidyl α-succinamidoacyl aminodiols as anti-hypertensive agents” (G.D. Searle & Co., priority 1993, dated 1995) come the findings set out here.

The subject of test [1] is hog renin. In words: hog renin inhibition assay in vitro (angiotensin I produced, radioimmunoassay). Format: biochemical. The following applies: 20 micromolar synthetic tetradecapeptide substrate, pH 7.4, one hour at 37° C. As to the method: (§1) Compounds of Formula I were evaluated as inhibitors of human renin in an in vitro assay, as follows: This human renin inhibition test has been previously described in detail [Papaioannou, et al., Clinical and Experimental Hypertension, A7(9), 1243-1257 (1985)]. Human renin was obtained from the National Institute for Biological Standards, London. In a total volume of 0.25 mL 100 mM Tris-acetate buffer at pH 7.4, 25×10-6 Goldblatt units of renin, 0.05 mL of plasma from human volunteers taking oral contraceptives, 6.0 mM sodium EDTA, 2.4 mM phenylmethyl sulfonyl fluoride, 1.5 mM 8-hydroxyquinoline, 0.4 mg/mL BSA, and 0.024 mg/mL neomycin sulfate were incubated for two hours at 37° C. in the presence or absence of renin inhibitors. The produced angiotensin I was determined by radioimmunoassay (New England Nuclear kit). Compounds to be assayed were solubilized in either ethyl alcohol or DMSO and diluted with 100 mM Tris-acetate buffer at pH 7.4 to the appropriate concentration. The final concentration of organic solvent in the reaction mixture was less than 1%. Control incubations at 37° C. were used to correct for effects of organic solvent on renin activity.
The hog renin inhibition assay was performed in a manner similar to the human renin assay, with the following modifications. […] The amount of angiotensin I produced was determined as for the human renin inhibition assay.

Test [2] concerns the target T1, human renin (Homo sapiens, UniProt P00797).
T1 construct: purchased National Institute for Biological Standards, London
T1 sequence (P00797 67-406): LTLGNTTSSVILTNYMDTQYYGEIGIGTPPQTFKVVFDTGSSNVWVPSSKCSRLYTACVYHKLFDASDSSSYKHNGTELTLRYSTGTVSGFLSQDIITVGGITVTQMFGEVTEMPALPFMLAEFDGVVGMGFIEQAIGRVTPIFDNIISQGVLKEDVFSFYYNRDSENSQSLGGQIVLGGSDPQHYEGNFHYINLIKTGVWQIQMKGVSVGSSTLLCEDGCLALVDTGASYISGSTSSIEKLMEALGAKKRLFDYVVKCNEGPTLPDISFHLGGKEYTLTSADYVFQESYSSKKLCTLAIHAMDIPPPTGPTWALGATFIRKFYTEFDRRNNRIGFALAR
Briefly: human renin inhibition assay in vitro (angiotensin I produced, radioimmunoassay). It is filed as biochemical. The following applies: human plasma, pH 7.4, two hours at 37° C. As to the method:
as §1

Take `CC(C)C[C@H](NC(=O)C(CC(=O)N1CCOCC1)Cc1cccc2ccccc12)C(=O)N[C@@H](CC1CCCCC1)[C@@H](O)CO` (stereo partly drawn) [Example 9, 3-(N-morpholinocarbonyl)-2-(R,S)-(1-naphthylmethyl)-propionyl-L-leucinamide of (2S ,3R)-2-amino-1-cyclohexyl-3,4-dihydroxybutane]: the figures for the IC50 in test [1] and in test [2] were 2800 nM and 740 nM, respectively.
